# Results: the supplement of paper PMC10307832
# Key:
# Experiment in all cases: relative viability (nuclei count vs DMSO), 5 days (fraction); higher = more cells survive
# Motesanib + Bortezomib = compound: CC1(C)CNc2cc(NC(=O)c3cccnc3NCc3ccncc3)ccc21 [Motesanib] + CC(C)C[C@H](NC(=O)[C@H](Cc1ccccc1)NC(=O)c1cnccn1)B(O)O [Bortezomib] (partner 0.002 µM)
# How it was run: (§1)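 Medians of duplicate plates are given as relative viability. That measure is the nuclei count in treated wells divided by the count in vehicle wells. Counts were taken on 4× images of lung cancer cell lines in 1536-well plates, 5 days after pin-tool dosing the day after seeding with one drug alone or a fixed anchor-drug dose plus five library-drug doses (not always all listed) in √10 steps.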
# Motesanib + Vorinostat = compound: CC1(C)CNc2cc(NC(=O)c3cccnc3NCc3ccncc3)ccc21 [Motesanib] + O=C(CCCCCCC(=O)Nc1ccccc1)NO [Vorinostat] (partner 1 µM)
# How it was run: as §1
# [1] = compound: C[C@@]1(C(=O)Nc2ccc(F)nc2)CCCN1c1nc(Nc2cc(C3CC3)n[nH]2)c2cccn2n1 + N=C(N)NC(=N)NCCc1ccccc1 [Phenformin] (partner 250 µM)
# How it was run: as §1
# [2] = compound: C[C@@]1(C(=O)Nc2ccc(F)nc2)CCCN1c1nc(Nc2cc(C3CC3)n[nH]2)c2cccn2n1 + NC(=O)Nc1cc(-c2cccc(F)c2)sc1C(=O)N[C@H]1CCCNC1 [AZD7762] (partner 0.2 µM)
# How it was run: as §1
Cell Line,relative viability (Motesanib + Bortezomib; first compound 0.01 µM),relative viability (Motesanib + Bortezomib; first compound 0.03162 µM),relative viability (Motesanib + Bortezomib; first compound 0.1 µM),relative viability (Motesanib + Bortezomib; first compound 0.3162 µM),relative viability (Motesanib + Bortezomib; first compound 1 µM),relative viability (Motesanib + Vorinostat; first compound 0.01 µM),relative viability (Motesanib + Vorinostat; first compound 0.03162 µM),relative viability (Motesanib + Vorinostat; first compound 0.1 µM),relative viability (Motesanib + Vorinostat; first compound 0.3162 µM),relative viability (Motesanib + Vorinostat; first compound 1 µM),relative viability ([1]; first compound 0.04 µM),relative viability ([1]; first compound 0.1265 µM),relative viability ([1]; first compound 0.4 µM),relative viability ([1]; first compound 1.265 µM),relative viability ([2]; first compound 0.04 µM),relative viability ([2]; first compound 0.1265 µM),relative viability ([2]; first compound 0.4 µM),relative viability ([2]; first compound 1.265 µM)
EKVX,1.1,1.19,1.04,1.14,1.06,0.777,0.819,0.777,0.895,0.867,0.204,0.215,0.218,0.221,0.671,0.505,0.489,0.578
NCI-H2087,0.796,0.781,0.885,0.76,0.704,,,0.561,0.764,0.791,0.437,0.342,0.313,0.237,1.26,1.25,1.09,1.23
NCI-H1437,0.368,0.525,0.434,0.626,0.615,0.927,0.73,0.759,0.799,0.852,0.257,0.253,0.214,0.171,1,1.25,0.688,0.745
ABC-1,0.282,0.341,0.221,0.284,0.292,0.786,1.22,0.939,1.24,1.06,0.182,0.211,0.216,0.216,0.833,0.595,0.643,0.593
NCI-H838,0.887,0.957,0.758,0.965,0.891,0.735,0.75,0.801,0.779,0.737,0.563,0.449,0.308,0.37,0.981,0.918,0.814,0.872
A-427,1.03,0.956,0.973,0.969,1.05,0.96,0.87,0.913,0.89,0.88,0.341,0.265,0.229,0.211,0.64,0.642,0.647,0.427
LCLC-97TM1,0.497,0.897,0.541,0.617,0.501,0.796,0.884,0.495,0.858,0.575,0.333,0.133,0.129,0.12,0.284,0.234,0.134,0.128
LCLC-103H,,1.02,1.16,1.03,1.07,0.756,0.843,0.815,1.02,0.762,0.343,0.309,0.253,0.28,0.7,0.748,0.6,0.691
PC-3 [JPC-3],0.921,0.802,0.879,0.922,0.968,0.686,0.71,0.774,0.828,0.789,0.504,0.467,0.456,0.476,0.7,0.689,0.551,0.415
BEN,0.696,0.793,0.869,0.861,0.935,0.543,0.56,0.637,0.654,0.772,0.291,0.229,0.272,0.281,0.809,0.645,0.67,0.676
NCI-H1666,0.845,0.766,0.816,0.77,0.862,0.926,0.978,1.06,1,1.02,0.554,0.529,0.635,0.487,0.838,0.667,0.642,0.552
LC-2-ad,1.02,1.03,1.04,1.14,0.942,0.694,0.694,0.811,0.808,0.709,0.484,0.388,0.369,0.257,0.657,0.586,0.543,0.391
ChaGo-K-1,,0.666,0.841,0.976,1.11,0.745,0.764,0.745,0.818,0.748,0.403,0.283,0.296,0.4,0.845,0.815,0.862,0.841
NCI-H1975,0.378,0.406,0.326,0.391,0.369,0.738,0.616,0.707,0.739,0.652,0.407,0.36,0.326,0.314,0.64,0.98,0.498,0.532
NCI-H1993,1.09,1.06,1.08,1.28,1.06,0.63,0.757,0.881,0.746,0.813,0.495,0.657,0.541,0.55,0.495,0.496,0.455,0.567
RERF-LC-KJ,1.01,1.13,1.09,1.09,1.03,0.625,0.711,0.745,0.808,0.789,0.315,0.348,0.322,0.273,0.976,0.688,0.737,0.723
NCI-H23,1.06,0.766,,1.21,1.16,0.597,0.549,0.516,0.741,0.51,0.703,0.648,0.533,0.704,0.238,0.208,0.193,0.114
HCC-366,1.06,1,1.06,0.997,1.09,0.382,0.388,0.443,0.375,0.308,0.66,0.54,0.596,0.186,0.356,0.31,0.293,0.152

Cell Line,relative viability (Motesanib + Bortezomib; first compound 0.01 µM),relative viability (Motesanib + Bortezomib; first compound 0.03162 µM),relative viability (Motesanib + Bortezomib; first compound 0.1 µM),relative viability (Motesanib + Bortezomib; first compound 0.3162 µM),relative viability (Motesanib + Bortezomib; first compound 1 µM),relative viability (Motesanib + Vorinostat; first compound 0.01 µM),relative viability (Motesanib + Vorinostat; first compound 0.03162 µM),relative viability (Motesanib + Vorinostat; first compound 0.1 µM),relative viability (Motesanib + Vorinostat; first compound 0.3162 µM),relative viability (Motesanib + Vorinostat; first compound 1 µM),relative viability ([1]; first compound 0.04 µM),relative viability ([1]; first compound 0.1265 µM),relative viability ([1]; first compound 0.4 µM),relative viability ([1]; first compound 1.265 µM),relative viability ([2]; first compound 0.04 µM),relative viability ([2]; first compound 0.1265 µM),relative viability ([2]; first compound 0.4 µM),relative viability ([2]; first compound 1.265 µM)
EMC-BAC-2,1.03,1.01,1.02,1.07,1.08,0.408,0.475,0.426,0.417,0.43,0.472,0.437,0.399,0.313,1.14,0.644,0.679,0.54
NCI-H2405,0.907,0.925,0.96,0.998,1.04,0.941,0.989,0.96,1,0.994,0.351,0.273,0.226,0.276,0.619,0.483,0.472,0.313
EPLC-272H,0.858,0.832,0.925,0.601,1,0.385,0.518,0.448,0.479,0.477,0.315,,0.251,0.275,0.215,0.187,0.212,0.164
NCI-H1915,0.959,0.929,0.936,0.98,0.989,0.603,0.489,0.479,0.544,0.527,0.372,0.381,0.378,0.347,0.728,0.731,0.663,0.701
NCI-H596,0.995,0.872,,1.18,0.995,0.586,0.546,0.56,0.511,0.711,0.649,0.69,0.738,0.763,1.1,1.07,0.94,1.19
NCI-H322M,1.32,1.24,1.39,1.36,1.23,0.962,0.88,0.871,1.03,0.849,0.686,0.561,0.531,0.499,0.45,0.424,0.492,0.35
NCI-H647,0.984,1.01,0.974,1.06,0.883,0.506,0.575,0.567,0.769,0.894,0.651,0.488,0.346,0.458,0.402,0.591,0.452,0.32
NCI-H2085,1.14,1.12,0.977,1.09,1.14,0.825,0.823,0.821,0.824,0.866,0.815,0.631,0.607,0.416,1.12,0.948,0.927,0.913
NCI-H727,0.735,0.926,0.883,0.919,0.818,1.12,1.29,1.39,1.26,1.29,0.402,0.247,0.266,0.322,0.573,0.386,0.443,0.345
NCI-H441,0.542,0.47,0.434,0.644,0.583,0.527,0.697,0.7,0.764,0.792,0.405,0.35,0.369,0.264,1.07,0.651,0.528,0.856
LOU-NH91,0.468,0.507,0.486,0.52,0.581,0.918,0.932,0.993,1,0.992,0.673,0.646,0.596,0.608,0.683,0.723,0.626,0.642
NCI-H3122,1.04,0.967,1.04,1.12,1.01,0.962,1.05,1.08,1.12,1,0.411,0.373,0.387,0.575,0.79,0.88,0.651,0.831
NCI-H460,1.09,1.18,1.08,1.25,1.1,0.635,0.696,0.716,0.726,0.666,0.53,0.436,0.36,0.239,0.737,0.667,0.609,0.649
NCI-H650,0.805,0.954,0.83,1.02,0.647,0.435,0.439,0.554,0.549,0.477,0.452,0.405,0.406,0.316,1.16,0.609,0.729,0.828
NCI-H1734,1,0.929,1.01,0.918,1.09,0.741,0.821,0.813,0.805,0.865,0.323,0.272,0.278,0.281,0.54,0.459,0.377,0.446
LXF-289,0.985,0.976,1.03,1.13,1.03,0.766,0.719,0.78,0.932,0.751,0.528,0.472,0.484,0.48,1.1,1.03,0.968,1.12
H3255,0.714,0.733,0.637,0.936,0.799,0.694,0.88,0.661,0.893,0.773,0.298,0.372,0.346,0.332,0.96,0.931,0.811,0.855
201T,1.05,1.07,1.08,1.17,1.08,0.929,0.974,1.08,1.01,1.01,0.346,0.355,0.32,0.36,0.623,0.575,0.473,0.597
